According to US20070049564A1 (Wyeth, priority 2005, published 2007):
Values after ≈ are worked out from the molar mass of the structure shown. Read-outs that look alike come from different tables or passages of the source.

Experiments:
Assay in all cases: MIC, broth microdilution
[1] = tested on: E. coli GC 3226; settings: Escherichia coli
[2] = tested on: E. coli GC 2234; settings: Escherichia coli
[3] = tested on: E. coli GC 2270; settings: Escherichia coli
[4] = tested on: S. aureus GC 6466; settings: Staphylococcus aureus
[5] = tested on: E. coli GC 2235; settings: Escherichia coli
[6] = tested on: S. agalactiae GC 4564; settings: Streptococcus agalactiae
[7] = tested on: E. coli GC 4559; settings: Escherichia coli
[8] = tested on: E. coli GC 2233; settings: Escherichia coli
[9] = tested on: S. aureus GC 6467; settings: Staphylococcus aureus
[10] = tested on: E. coli GC 2271; settings: Escherichia coli
[11] = tested on: S. pyogenes GC 4563; settings: Streptococcus pyogenes
[12] = tested on: S. aureus GC 6335; settings: Staphylococcus aureus
[13] = tested on: E. faecium GC 4556; settings: Enterococcus faecium
[14] = tested on: E. coli GC 4560; settings: Escherichia coli
[15] = tested on: E. coli GC 2203; settings: Escherichia coli
[16] = tested on: E. coli GC 1073; settings: Escherichia coli
[17] = tested on: E. coli GC 6465; settings: Escherichia coli
[18] = tested on: S. aureus GC 1079; settings: Staphylococcus aureus
[19] = tested on: S. aureus GC 6469; settings: Staphylococcus aureus
[20] = tested on: S. typhimurium GC 2172; settings: Salmonella enterica, TYPHIMURIUM
Description: Antimicrobial susceptibility testing. The in vitro activities of the antibiotics are determined by the broth microdilution method as recommended by the National Committee for Clinical Laboratory Standards (NCCLS) (1). Mueller-Hinton II broth (MHBII)(BBL Cockeysville, Md.) is the medium employed in the testing procedures. Microtiter plates containing serial dilutions of each antimicrobial agent are inoculated with each organism to yield the appropriate density (10^5 CFU/ml) in a 100 μl final volume. The plates are incubated for 18-22 hours at 35° C. in ambient air.
Representative compounds were first incubated in mouse serum for an hour prior to the in vitro testing against a panel of selected gram-positive and gram-negative bacteria strains. All compounds were also pre-incubated in water for an hour prior to testing as control.

CC(C)CC(=O)OCOC(=O)N(CC(=O)Nc1cc(N(C)C)c2c(c1O)C(=O)C1=C(O)[C@]3(O)C(=O)C(C(N)=O)=C(O)[C@@H](N(C)C)[C@@H]3C[C@@H]1C2)C(C)(C)C [Example 53, ({[(2-{[(5aR,6aS,7S,10aS)-9-(aminocarbonyl)-4,7-bis(dimethylamino)-1,8,10a,11-tetrahydroxy-10,12-dioxo-5,5a,6,6a,7,10,10a,12-octahydrotetracen-2-yl]amino}-2-oxoethyl)(tert-butyl)amino]carbonyl}oxy)methyl 3-methylbutanoate]
MIC ([1]; GC3226, read-out: MINIMAL INHIBITORY CONCENTRATION MIC, Human Serum): 16 µg/mL (≈ 21.5 µM) | MIC ([1]; GC3226, read-out: MINIMAL INHIBITORY CONCENTRATION MIC, Mouse Serum): 1 µg/mL (≈ 1.34 µM) | MIC ([1]; GC3226, read-out: MINIMAL INHIBITORY CONCENTRATION MIC, Water): 32 µg/mL (≈ 43 µM) | MIC ([2]; GC2234, read-out: MINIMAL INHIBITORY CONCENTRATION MIC, Human Serum): 8 µg/mL (≈ 10.8 µM) | MIC ([2]; GC2234, read-out: MINIMAL INHIBITORY CONCENTRATION MIC, Mouse Serum): 0.5 µg/mL (≈ 0.672 µM) | MIC ([2]; GC2234, read-out: MINIMAL INHIBITORY CONCENTRATION MIC, Water): 16 µg/mL (≈ 21.5 µM) | MIC ([3]; GC2270, read-out: MINIMAL INHIBITORY CONCENTRATION MIC, Human Serum): 8 µg/mL (≈ 10.8 µM) | MIC ([3]; GC2270, read-out: MINIMAL INHIBITORY CONCENTRATION MIC, Mouse Serum): 1 µg/mL (≈ 1.34 µM) | MIC ([3]; GC2270, read-out: MINIMAL INHIBITORY CONCENTRATION MIC, Water): 32 µg/mL (≈ 43 µM) | MIC ([4]; GC6466, read-out: MINIMAL INHIBITORY CONCENTRATION MIC, Human Serum): 0.5 µg/mL (≈ 0.672 µM) | MIC ([4]; GC6466, read-out: MINIMAL INHIBITORY CONCENTRATION MIC, Mouse Serum): 0.5 µg/mL (≈ 0.672 µM) | MIC ([4]; GC6466, read-out: MINIMAL INHIBITORY CONCENTRATION MIC, Water): 0.5 µg/mL (≈ 0.672 µM) | MIC ([5]; GC2235, read-out: MINIMAL INHIBITORY CONCENTRATION MIC, Human Serum): 8 µg/mL (≈ 10.8 µM) | MIC ([5]; GC2235, read-out: MINIMAL INHIBITORY CONCENTRATION MIC, Mouse Serum): 0.5 µg/mL (≈ 0.672 µM) | MIC ([5]; GC2235, read-out: MINIMAL INHIBITORY CONCENTRATION MIC, Water): 32 µg/mL (≈ 43 µM) | MIC ([6]; GC4564, read-out: MINIMAL INHIBITORY CONCENTRATION MIC, Human Serum): 0.5 µg/mL (≈ 0.672 µM) | MIC ([6]; GC4564, read-out: MINIMAL INHIBITORY CONCENTRATION MIC, Mouse Serum): < 0.06 µg/mL | MIC ([6]; GC4564, read-out: MINIMAL INHIBITORY CONCENTRATION MIC, Water): 0.5 µg/mL (≈ 0.672 µM) | MIC ([7]; GC4559, read-out: MINIMAL INHIBITORY CONCENTRATION MIC, Human Serum): 16 µg/mL (≈ 21.5 µM) | MIC ([7]; GC4559, read-out: MINIMAL INHIBITORY CONCENTRATION MIC, Mouse Serum): 1 µg/mL (≈ 1.34 µM) | MIC ([7]; GC4559, read-out: MINIMAL INHIBITORY CONCENTRATION MIC, Water): 32 µg/mL (≈ 43 µM) | MIC ([8]; GC2233, read-out: MINIMAL INHIBITORY CONCENTRATION MIC, Human Serum): 16 µg/mL (≈ 21.5 µM) | MIC ([8]; GC2233, read-out: MINIMAL INHIBITORY CONCENTRATION MIC, Mouse Serum): 1 µg/mL (≈ 1.34 µM) | MIC ([8]; GC2233, read-out: MINIMAL INHIBITORY CONCENTRATION MIC, Water): 32 µg/mL (≈ 43 µM) | MIC ([9]; GC6467, read-out: MINIMAL INHIBITORY CONCENTRATION MIC, Human Serum): 1 µg/mL (≈ 1.34 µM) | MIC ([9]; GC6467, read-out: MINIMAL INHIBITORY CONCENTRATION MIC, Mouse Serum): 1 µg/mL (≈ 1.34 µM) | MIC ([9]; GC6467, read-out: MINIMAL INHIBITORY CONCENTRATION MIC, Water): 2 µg/mL (≈ 2.69 µM) | MIC ([10]; GC2271, read-out: MINIMAL INHIBITORY CONCENTRATION MIC, Human Serum): 8 µg/mL (≈ 10.8 µM) | MIC ([10]; GC2271, read-out: MINIMAL INHIBITORY CONCENTRATION MIC, Mouse Serum): 0.5 µg/mL (≈ 0.672 µM) | MIC ([10]; GC2271, read-out: MINIMAL INHIBITORY CONCENTRATION MIC, Water): 16 µg/mL (≈ 21.5 µM) | MIC ([11]; GC4563, read-out: MINIMAL INHIBITORY CONCENTRATION MIC, Human Serum): 0.25 µg/mL (≈ 0.336 µM) | MIC ([11]; GC4563, read-out: MINIMAL INHIBITORY CONCENTRATION MIC, Mouse Serum): 0.12 µg/mL (≈ 0.161 µM) | MIC ([11]; GC4563, read-out: MINIMAL INHIBITORY CONCENTRATION MIC, Water): 0.25 µg/mL (≈ 0.336 µM) | MIC ([12]; GC6335, read-out: MINIMAL INHIBITORY CONCENTRATION MIC, Human Serum): 0.5 µg/mL (≈ 0.672 µM) | MIC ([12]; GC6335, read-out: MINIMAL INHIBITORY CONCENTRATION MIC, Mouse Serum): 0.5 µg/mL (≈ 0.672 µM) | MIC ([12]; GC6335, read-out: MINIMAL INHIBITORY CONCENTRATION MIC, Water): 1 µg/mL (≈ 1.34 µM) | MIC ([13]; GC4556, read-out: MINIMAL INHIBITORY CONCENTRATION MIC, Human Serum): 2 µg/mL (≈ 2.69 µM) | MIC ([13]; GC4556, read-out: MINIMAL INHIBITORY CONCENTRATION MIC, Mouse Serum): 0.5 µg/mL (≈ 0.672 µM) | MIC ([13]; GC4556, read-out: MINIMAL INHIBITORY CONCENTRATION MIC, Water): 2 µg/mL (≈ 2.69 µM) | MIC ([14]; GC4560, read-out: MINIMAL INHIBITORY CONCENTRATION MIC, Human Serum): 2 µg/mL (≈ 2.69 µM) | MIC ([14]; GC4560, read-out: MINIMAL INHIBITORY CONCENTRATION MIC, Mouse Serum): 0.5 µg/mL (≈ 0.672 µM) | MIC ([14]; GC4560, read-out: MINIMAL INHIBITORY CONCENTRATION MIC, Water): 2 µg/mL (≈ 2.69 µM) | MIC ([15]; GC2203, read-out: MINIMAL INHIBITORY CONCENTRATION MIC, Human Serum): 16 µg/mL (≈ 21.5 µM) | MIC ([15]; GC2203, read-out: MINIMAL INHIBITORY CONCENTRATION MIC, Mouse Serum): 1 µg/mL (≈ 1.34 µM) | MIC ([15]; GC2203, read-out: MINIMAL INHIBITORY CONCENTRATION MIC, Water): 32 µg/mL (≈ 43 µM) | MIC ([16]; GC1073, read-out: MINIMAL INHIBITORY CONCENTRATION MIC, Human Serum): 16 µg/mL (≈ 21.5 µM) | MIC ([16]; GC1073, read-out: MINIMAL INHIBITORY CONCENTRATION MIC, Mouse Serum): 1 µg/mL (≈ 1.34 µM) | MIC ([16]; GC1073, read-out: MINIMAL INHIBITORY CONCENTRATION MIC, Water): 32 µg/mL (≈ 43 µM) | MIC ([17]; GC6465, read-out: MINIMAL INHIBITORY CONCENTRATION MIC, Human Serum): 32 µg/mL (≈ 43 µM) | MIC ([17]; GC6465, read-out: MINIMAL INHIBITORY CONCENTRATION MIC, Mouse Serum): 4 µg/mL (≈ 5.38 µM) | MIC ([17]; GC6465, read-out: MINIMAL INHIBITORY CONCENTRATION MIC, Water): > 64 µg/mL | MIC ([18]; GC1079, read-out: MINIMAL INHIBITORY CONCENTRATION MIC, Human Serum): 0.5 µg/mL (≈ 0.672 µM) | MIC ([18]; GC1079, read-out: MINIMAL INHIBITORY CONCENTRATION MIC, Mouse Serum): 0.5 µg/mL (≈ 0.672 µM) | MIC ([18]; GC1079, read-out: MINIMAL INHIBITORY CONCENTRATION MIC, Water): 1 µg/mL (≈ 1.34 µM) | MIC ([19]; GC6469, read-out: MINIMAL INHIBITORY CONCENTRATION MIC, Human Serum): 1 µg/mL (≈ 1.34 µM) | MIC ([19]; GC6469, read-out: MINIMAL INHIBITORY CONCENTRATION MIC, Mouse Serum): 1 µg/mL (≈ 1.34 µM) | MIC ([19]; GC6469, read-out: MINIMAL INHIBITORY CONCENTRATION MIC, Water): 2 µg/mL (≈ 2.69 µM) | MIC ([20]; read-out: MINIMAL INHIBITORY CONCENTRATION MIC, Human Serum): 64 µg/mL (≈ 86 µM) | MIC ([20]; read-out: MINIMAL INHIBITORY CONCENTRATION MIC, Mouse Serum): 4 µg/mL (≈ 5.38 µM) | MIC ([20]; read-out: MINIMAL INHIBITORY CONCENTRATION MIC, Water): > 64 µg/mL
